Data published in patent US10590113B2, “6-hydroxy-4-oxo-1,4-dihydropyrimidine-5-carboxamides as APJ agonists” (priority 2016, dated 2020).

Biological target: T1, human APJ receptor (Homo sapiens, UniProt P35414)
T1 construct: expressed in transfected cells; host or cells: HEK293
T1 sequence (P35414 1-380): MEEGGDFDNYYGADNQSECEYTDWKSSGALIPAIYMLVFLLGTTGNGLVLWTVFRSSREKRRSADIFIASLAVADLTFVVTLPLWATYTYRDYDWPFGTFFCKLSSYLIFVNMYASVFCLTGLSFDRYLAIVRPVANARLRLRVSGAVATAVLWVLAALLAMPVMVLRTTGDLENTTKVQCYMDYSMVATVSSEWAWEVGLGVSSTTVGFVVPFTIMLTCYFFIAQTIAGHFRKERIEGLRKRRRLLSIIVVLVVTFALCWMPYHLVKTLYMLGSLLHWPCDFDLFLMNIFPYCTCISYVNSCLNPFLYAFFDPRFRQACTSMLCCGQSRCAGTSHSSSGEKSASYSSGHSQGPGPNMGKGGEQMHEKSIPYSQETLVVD
Assay: Intracellular cAMP Accumulation Assay (APJ hcAMP, HTRF)
Assay type: cell-based
Details: human APJ, cAMP accumulation; potency range class; read-out: hAPJ cAMP EC50 Potency range
How it was run: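 Stably transfected HEK293 cells (5,000/well) incubated 30 min at room temperature with serially diluted compound, […] and 2 μM forskolin. cAMP measured by HTRF after 60 min with detection reagents, quantified against a cAMP standard curve; EC50 from variable-slope sigmoidal fit of inhibition of forskolin-stimulated cAMP.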

EC50, 0.01 to 10 nM:
COc1ccnc(-c2nc(=O)c(C(=O)N3CCC(c4c(F)cccc4F)C3)c(O)n2-c2c(OC)cccc2OC)c1 (single isomer, unassigned) [Example 273, 5-[3-(2,6-difluorophenyl)pyrrolidine-1-carbonyl]-1-(2,6-dimethoxyphenyl)-6-hydroxy-2-(4-methoxypyridin-2-yl)-1,4-dihydropyrimidin-4-one]
COc1cccc(OC)c1-n1c(-c2ccc(C)cn2)nc(=O)c(C(=O)N2CCC(c3c(F)cccc3F)C2)c1O (single isomer, unassigned) [Example 274, 5-[3-(2,6-difluorophenyl)pyrrolidine-1-carbonyl]-1-(2,6-dimethoxyphenyl)-6-hydroxy-2-(5-methylpyridin-2-yl)-1,4-dihydropyrimidin-4-one]
CCn1ccc(-c2nc(=O)c(C(=O)N3CCC(c4c(F)cccc4F)C3)c(O)n2-c2c(OC)cccc2OC)n1 (single isomer, unassigned) [Example 276, 5-[3-(2,6-difluorophenyl)pyrrolidine-1-carbonyl]-1-(2,6-dimethoxyphenyl)-2-(1-ethyl-1H-pyrazol-3-yl)-6-hydroxy-1,4-dihydropyrimidin-4-one]
COc1ccnc(-c2nc(=O)c(C(=O)N3CCC(c4ccc(F)cc4F)C3)c(O)n2-c2c(OC)cccc2OC)c1 (single isomer, unassigned) [Example 278, 5-[3-(2,4-difluorophenyl)pyrrolidine-1-carbonyl]-1-(2,6-dimethoxyphenyl)-6-hydroxy-2-(4-methoxypyridin-2-yl)-1,4-dihydropyrimidin-4-one]
COc1cccc(OC)c1-n1c(-c2ccc(Cl)nc2)nc(=O)c(C(=O)N2CCC(c3ccc(F)cc3F)C2)c1O (single isomer, unassigned) [Example 279, 2-(6-chloropyridin-3-yl)-5-[3-(2,4-difluorophenyl)pyrrolidine-1-carbonyl]-1-(2,6-dimethoxyphenyl)-6-hydroxy-1,4-hydropyrimidin-4-one]
COc1cccc(OC)c1-n1c(-c2ccc(Cl)cn2)nc(=O)c(C(=O)N2CCC(c3c(F)cccc3F)C2)c1O (single isomer, unassigned) [Example 280, 2-(5-chloropyridin-2-yl)-5-[3-(2,6-difluorophenyl)pyrrolidine-1-carbonyl]-1-(2,6-dimethoxyphenyl)-6-hydroxy-1,4-dihydropyrimidin-4-one]
COc1cccc(OC)c1-n1c(-c2ccc(Cl)nc2)nc(=O)c(C(=O)N2CCC(c3c(F)cccc3F)C2)c1O (single isomer, unassigned) [Example 281, 2-(6-chloropyridin-3-yl)-5-[3-(2,6-difluorophenyl)pyrrolidine-1-carbonyl]-1-(2,6-dimethoxyphenyl)-6-hydroxy-1,4-dihydropyrimidin-4-one]
COc1cccc(OC)c1-n1c(-c2ccc(Cl)cn2)nc(=O)c(C(=O)N2CCC(c3ccc(F)cc3F)C2)c1O (single isomer, unassigned) [Example 287, 2-(5-chloropyridin-2-yl)-5-[3-(2,4-difluorophenyl)pyrrolidine-1-carbonyl]-1-(2,6-dimethoxyphenyl)-6-hydroxy-1,4-dihydropyrimidin-4-one]
CCc1cccc(CC)c1-n1c(-c2ccn(C(C)C)n2)nc(=O)c(C(=O)N2CCC(c3ncc(Cl)cc3F)C2)c1O (single isomer, unassigned) [Example 290, 5-[3-(5-chloro-3-fluoropyridin-2-yl)pyrrolidine-1-carbonyl]-1-(2,6-diethylphenyl)-6-hydroxy-2-[1-(propan-2-yl)-1H-pyrazol-3-yl]-1,4-dihydropyrimidin-4-one]
CCc1cccc(CC)c1-n1c(-c2ccn(C(C)C)n2)nc(=O)c(C(=O)N2CCC(c3ncccc3F)C2)c1O (single isomer, unassigned) [Example 292, 1-(2,6-diethylphenyl)-5-[3-(3-fluoropyridin-2-yl)pyrrolidine-1-carbonyl]-6-hydroxy-2-[1-(propan-2-yl)-1H-pyrazol-3-yl]-1,4-dihydropyrimidin-4-one]
CCn1ccc(-c2nc(=O)c(C(=O)N3CCC(c4ncc(F)cc4F)C3)c(O)n2-c2cccc(C(C)C)c2)n1 (single isomer, unassigned) [Example 293, 5-[3-(3,5-difluoropyridin-2-yl)pyrrolidine-1-carbonyl]-2-(1-ethyl-1H-pyrazol-3-yl)-6-hydroxy-1-[3-(propan-2-yl)phenyl]-1,4-dihydropyrimidin-4-one]
CCn1ccc(-c2nc(=O)c(C(=O)N3CCC(c4ccccc4F)C3)c(O)n2-c2cccc(C(C)C)c2)n1 (single isomer, unassigned) [Example 294, 2-(1-ethyl-1H-pyrazol-3-yl)-5-[3-(2-fluorophenyl)pyrrolidine-1-carbonyl]-6-hydroxy-1-[3-(propan-2-yl)phenyl]-1,4-dihydropyrimidin-4-one]
CCc1cccc(CC)c1-n1c(-c2ccn(C(C)C)n2)nc(=O)c(C(=O)N2CCC(c3ccccc3F)C2)c1O (single isomer, unassigned) [Example 295, 1-(2,6-diethylphenyl)-5-[3-(2-fluorophenyl)pyrrolidine-1-carbonyl]-6-hydroxy-2-[1-(propan-2-yl)-1H-pyrazol-3-yl]-1,4-dihydropyrimidin-4-one]
CCc1cccc(CC)c1-n1c(-c2csc(C)n2)nc(=O)c(C(=O)N2CCC(c3ncc(Cl)cc3F)C2)c1O (single isomer, unassigned) [Example 296, 5-[3-(5-chloro-3-fluoropyridin-2-yl)pyrrolidine-1-carbonyl]-1-(2,6-diethylphenyl)-6-hydroxy-2-(2-methyl-1,3-thiazol-4-yl)-1,4-dihydropyrimidin-4-one]
CCc1cccc(CC)c1-n1c(-c2csc(C(C)C)n2)nc(=O)c(C(=O)N2CCC(c3ncc(F)cc3F)C2)c1O (single isomer, unassigned) [Example 297, 1-(2,6-diethylphenyl)-5-[3-(3,5-difluoropyridin-2-yl)pyrrolidine-1-carbonyl]-6-hydroxy-2-[2-(propan-2-yl)-1,3-thiazol-4-yl]-1,4-dihydropyrimidin-4-one]
CCc1cccc(CC)c1-n1c(-c2csc(C)n2)nc(=O)c(C(=O)N2CCC(c3ncc(F)cc3F)C2)c1O (single isomer, unassigned) [Example 298, 1-(2,6-diethylphenyl)-5-[3-(3,5-difluoropyridin-2-yl)pyrrolidine-1-carbonyl]-6-hydroxy-2-(2-methyl-1,3-thiazol-4-yl)-1,4-dihydropyrimidin-4-one]
CCc1cccc(CC)c1-n1c(-c2csc(C(C)C)n2)nc(=O)c(C(=O)N2CCC(c3ccc(F)cn3)C2)c1O (single isomer, unassigned) [Example 300, 1-(2,6-diethylphenyl)-5-[3-(5-fluoropyridin-2-yl)pyrrolidine-1-carbonyl]-6-hydroxy-2-[2-(propan-2-yl)-1,3-thiazol-4-yl]-1,4-dihydropyrimidin-4-one]
CCc1cccc(CC)c1-n1c(-c2csc(C)n2)nc(=O)c(C(=O)N2CCC(c3ncccc3F)C2)c1O (single isomer, unassigned) [Example 302, 1-(2,6-diethylphenyl)-5-[3-(3-fluoropyridin-2-yl)pyrrolidine-1-carbonyl]-6-hydroxy-2-(2-methyl-1,3-thiazol-4-yl)-1,4-dihydropyrimidin-4-one]
CCc1cccc(CC)c1-n1c(-c2nc(C)cs2)nc(=O)c(C(=O)N2CCC(c3ncc(Cl)cc3F)C2)c1O (single isomer, unassigned) [Example 306, 5-[3-(5-chloro-3-fluoropyridin-2-yl)pyrrolidine-1-carbonyl]-1-(2,6-diethylphenyl)-6-hydroxy-2-(4-methyl-1,3-thiazol-2-yl)-1,4-dihydropyrimidin-4-one]
CCc1cccc(CC)c1-n1c(-c2nc(C)cs2)nc(=O)c(C(=O)N2CCC(c3ncccc3F)C2)c1O (single isomer, unassigned) [Example 307, 1-(2,6-diethylphenyl)-5-[3-(3-fluoropyridin-2-yl)pyrrolidine-1-carbonyl]-6-hydroxy-2-(4-methyl-1,3-thiazol-2-yl)-1,4-dihydropyrimidin-4-one]
CCc1cccc(CC)c1-n1c(-c2ccn(CC)n2)nc(=O)c(C(=O)N2CCC(c3ncccc3F)C2)c1O (single isomer, unassigned) [Example 308, 1-(2,6-diethylphenyl)-2-(1-ethyl-1H-pyrazol-3-yl)-5-[3-(3-fluoropyridin-2-yl)pyrrolidine-1-carbonyl]-6-hydroxy-1,4-dihydropyrimidin-4-one]
CCc1cccc(CC)c1-n1c(-c2ccn(CC)n2)nc(=O)c(C(=O)N2CCC(c3ncc(F)cc3F)C2)c1O (single isomer, unassigned) [Example 309, 1-(2,6-diethylphenyl)-5-[3-(3,5-difluoropyridin-2-yl)pyrrolidine-1-carbonyl]-2-(1-ethyl-1H-pyrazol-3-yl)-6-hydroxy-1,4-dihydropyrimidin-4-one]
